The source of these data is patent publication US20020115703A1, “Prevention of development of dyskinesias” (priority 2000, published 2002).

For the test, the system named is locomotor hyperactivity induced by repeated administration of D-amphetamine. Nature of the test: Locomotor (ambulatory) activity after repeated D-amphetamine administration (behavioral sensitization), photobeam activity system. The class given is in vivo, mice. On the procedure:
The effects of atipamezole on the locomotor hyperactivity induced by repeated administration of D-amphetamine were studied in male mice.
Experiments were performed with C57BL/ 6J strain male mice from Jackson Laboratories. Mice were transferred to the laboratory at least 2 weeks prior to use. The mice were from 8 to 20 weeks of age at the beginning of an experiment. Groups of 10 mice were housed in standard polypropylene cages (38×22×15 cm) with free access to standard certified pelleted food (RM1 Maintenance Expanded SQC; Special Diet Services, Essex, UK) and water. Ambient temperature was 22±1 C.°, and a 12:12 h light dark cycle was maintained with lights on at 6 A.M. All experiments were carried out between 7 A.M. 1 and 5 P.M. The animal care was performed in accordance with International Council for Laboratory Animal Science (ICLAS) guidelines.
D-Amphetamine sulphate (Sigma, St. Louis, Mo., U.S.A.) and atipamezole HCl (Orion Corporation, Orion Pharma, Turku, Finland) were dissolved in saline (0.9% NaCl) and administered subcutaneously (s.c.) in a 5 ml kg volume.
The locomotor activity of the mice was measured in transparent standard polypropylene animal cages (38×22×15 cm) with transparent covers and aspen bedding on the floors. Test cages were placed in the middle of the photobeam frame system (Photobeam Activity System PAS, Cage Rack, San Diego Instruments, San Diego, Calif.). A computer control unit registered the interruptions of photobeams from 16 individual cages. Three different types of movements were monitored: 1) ambulations (large horizontal movements), 2) fine movements (smaller horizontal movements), and 3) rearings (vertical movements). Locomotor activity was measured at 5-min intervals for 2 h immediately after D-amphetamine or saline administrations.
D-amphetamine was administered subcutaneously (s.c.) at a dose of 2 mg/kg. Atipamezole was administered s.c. at a dose of 1 mg/kg 20 min before locomotor activity measurement.
In the chronic treatment group, mice were administered the dose during eight days to elicit provoked locomotor hyperactivity to D-amphetamine and the effect of the atipamezole to the locomotor activity. Mice groups in the chronic treatment schedule were saline, saline-amphetamine, amphetamine, atipamezole and atipamezole-amphetamine. A day before experiment, mice were habituated to the test environment. Test groups with different drug treatments were administrated during four consecutive days. At days five and six, there were no drug administrations nor motor activity testing. At days seven and eight, the produced locomotor hyperactivity and effect of a single exposure of D-amphetamine (saline-amphetamine-group) were analysed. (Table 1).
At day nine, the effect of different atipamezole and amphetamine administrations to the locomotor activity on the chronic treatment groups were analysed. Treatments included saline, 1 mg/kg atipamezole, 2 mg/kg D-amphetamine, 0,3 mg/kg atipamezole- 2 mg/kg D-amphetamine and 1 mg/kg atipamezole- 2 mg/kg D-amphetamine. Chronic treatment groups were saline-, atipamezole-, amphetamine- and atipamezole-amphetamine groups. Chronic groups were treated following the schedule in Table 2.
All data are presented as mean ±SEM. Statistical analysis were performed using SPSS 9.0 for Windows (SPSS, Chicago, Ill.). Separate repeated measure analyses of variance (ANOVA) were performed on each variable for each experiment grouped on time and treatment group. Results were analysed separately, because data were collected in separate experiments with different study design. When significance (P<0.05) between treatment groups was found, comparisons at each time point (date or min) were analysed by using LSD post-hoc test.

`C[C@H](N)Cc1ccccc1` [D-amphetamine]: the “ambulatory activity (2-h overall counts) during repeated administration” value (D-amphetamine 2 mg/kg s.c., six repeated administrations over days 1-8, compared to saline group, C57BL/6J male mice, FIG. 1) is “progressive enhance in ambulatory activity”. Besides, the “ambulatory sensitization at Day 9” value (chronic amphetamine group, repeated D-amphetamine 2 mg/kg (P<0.001), FIG. 2) is “developed strong ambulatory sensitization”. Further, the “locomotor activity at Day 9, single D-amphetamine challenge” value (chronic saline group, D-amphetamine 2 mg/kg at Day 9 (P<0.001 vs saline), FIG. 2) is “significantly enhanced locomotor activity”.
For `CCC1(c2cnc[nH]2)Cc2ccccc2C1` [atipamezole, 4-(2-ethyl-2,3-dihydro-1H-inden-2-y1)-1H-imidazole], for the setting “atipamezole 1 mg/kg 20 min before D-amphetamine 2 mg/kg days 1-9, vs amphetamine-amphetamine group (P<0.001), FIG. 2”, the “D-amphetamine induced locomotion at Day 9, chronic atipamezole-amphetamine group” value was “decreased significantly D-amphetamine induced locomotion”. Moreover, the “D-amphetamine-induced locomotion, chronic atipamezole pre-treatment” value (atipamezole 1 mg/kg s.c. 20 min before D-amphetamine 2 mg/kg s.c. over days 1-8, vs amphetamine-amphetamine group, Day 2 P<0.05, Days 3-8 P<0.001, FIG. 1) is “decreased significantly D-amphetamine-induced locomotion”. The “locomotor activity, atipamezole pre-treatment before saline challenge” value (atipamezole 1 mg/kg s.c. daily for six days, atipamezole-saline vs saline group at Day 8 (P=0.43), FIG. 1) was “not a statistically significant difference”. Besides, the “D-amphetamine-induced locomotor hyperactivity at Day 9 (expression of sensitization)” value runs as follows: (chronic amphetamine group, atipamezole 0.3 mg/kg 20 min before D-amphetamine 2 mg/kg at Day 9 (P=0.005), FIG. 2) “clearly attenuated the D-amphetamine-induced locomotor hyperactivity”; (chronic amphetamine group, atipamezole 1 mg/kg 20 min before D-amphetamine 2 mg/kg at Day 9 (P<0.001), FIG. 2) “clearly attenuated the D-amphetamine-induced locomotor hyperactivity”. For the same molecule, the “locomotor activity at Day 9 after chronic atipamezole” value (chronic atipamezole group (1 mg/kg days 1-8), before saline and D-amphetamine challenge at Day 9, FIG. 2) was “the elevation was not statistically significant”. Besides, under “chronic atipamezole-amphetamine group given only D-amphetamine 2 mg/kg at Day 9, vs amphetamine-amphetamine group (P=0.026), FIG. 2”, the “development of sensitisation: locomotion at Day 9 with D-amphetamine only” value is reported as “true reduction in the development of sensitisation”. For the same molecule, the “locomotor activity at Day 9, atipamezole before acute D-amphetamine” value is, setting by setting: (chronic saline group, atipamezole 0.3 mg/kg 20 min before D-amphetamine 2 mg/kg, compared to D-amphetamine alone (P=0.016), FIG. 2) “amplified locomotor activity”; (chronic saline group, atipamezole 1 mg/kg 20 min before D-amphetamine 2 mg/kg, compared to D-amphetamine alone (P=0.364), FIG. 2) “had no effect”. Further, where the note is “chronic saline group, atipamezole 1 mg/kg 20 min before saline at Day 9 (P=0.81), FIG. 2”, the “total ambulatory activity counts at Day 9, atipamezole alone” value is “did not alter total ambulatory activity counts”. The “development and expression of sensitization (motor overactivity), overall finding” value (given chronically in combination with D-amphetamine, in mice) is “reduces the development and expression of sensitization”.
